Reference: article PMC8260145 (Archives of biochemistry and biophysics, 2021)
Values joined by “and” are separate entries in the source; they are usually repeats but may differ in a detail not shown here. Equal entries are not always repeated. Where two headings read alike, the source gives them in different places.

Tests used:
[1] = target: T1, recombinant human CYP2B6 (Homo sapiens, UniProt P20813); experiment: Inhibition of C152 metabolism in SS
T1 sequence (P20813 1-491): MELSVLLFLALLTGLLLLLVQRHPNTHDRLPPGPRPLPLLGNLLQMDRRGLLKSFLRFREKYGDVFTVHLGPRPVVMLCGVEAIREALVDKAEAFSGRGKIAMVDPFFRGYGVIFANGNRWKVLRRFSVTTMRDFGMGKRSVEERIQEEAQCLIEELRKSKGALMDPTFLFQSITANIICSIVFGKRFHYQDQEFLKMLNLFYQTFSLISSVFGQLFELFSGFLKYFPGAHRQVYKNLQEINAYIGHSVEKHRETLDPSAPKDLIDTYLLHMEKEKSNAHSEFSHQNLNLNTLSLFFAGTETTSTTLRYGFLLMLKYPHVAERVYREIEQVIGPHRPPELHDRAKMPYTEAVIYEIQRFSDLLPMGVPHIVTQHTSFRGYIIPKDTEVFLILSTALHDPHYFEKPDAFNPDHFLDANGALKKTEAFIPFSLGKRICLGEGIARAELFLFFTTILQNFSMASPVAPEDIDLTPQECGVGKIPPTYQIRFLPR

[2] = target: T2, recombinant human CYP3A4 (Homo sapiens, UniProt P08684); experiment: Inhibition of C152 metabolism in SS
[3] = test system: human liver microsomes; experiment: Inhibition of C152 metabolism in human liver microsomes; format: biochemical; conditions: 30 μM C152; for IC50: read-out: IC50 ((+)-N-3-Benzylnirvanol)
[4] = target: T3, recombinant human CYP2C19 (Homo sapiens, UniProt P33261); experiment: Inhibition of C152 metabolism in SS
[5] = target: T4, recombinant human CYP3A5 (Homo sapiens, UniProt P20815); experiment: Inhibition of C152 metabolism in SS; conditions: SS(3A5), 30 μM C152
[6] = target: T4, recombinant human CYP3A5; experiment: C152 demethylation, continuous fluorometric assay, Supersomes SS; format: in vitro ADME; conditions: SS(3A5)
[7] = test system: CYP2C8; conditions: cited from earlier work
[8] = target: T1, recombinant human CYP2B6; experiment: C152 demethylation, continuous fluorometric assay, Supersomes SS; format: in vitro ADME; conditions: SS(2B6)
[9] = test system: recombinant human CYP3A4; experiment: as above; format: in vitro ADME
[10] = target: T3, recombinant human CYP2C19; experiment: as above; format: in vitro ADME; conditions: SS(2C19)
[11] = test system: human liver microsomes; format: in vitro ADME
[12] = test system: CYP2E1; conditions: cited from earlier work
[13] = test system: CYP2A6; conditions: cited from earlier work
[14] = target: T4, recombinant human CYP3A5; experiment: biochemical
[15] = target: T2, recombinant human CYP3A4
[16] = test system: CYP2A6; experiment: 7-hydroxylation of coumarin in HLM; format: in vitro ADME, human; conditions: HLM(ODN), added CYP2A6 0
[17] = HLM(FVT) + added CYP3A5 43 pmol/mg protein (molar ratio 0.125)
[18] = HLM(ODN) + added CYP3A5 54 pmol/mg protein (molar ratio 0.125)
[19] = N-demethylation of C152, HLM(ODN), added CYP2A6 0
[20] = N-demethylation of C152, HLM(ODN), added CYP2A6 54 pmol/mg protein (ratio 0.125)
[21] = N-demethylation of C152, HLM(ODN), added CYP2A6 108 pmol/mg protein (ratio 0.25)
[22] = N-demethylation of C152, HLM(ODN), added CYP2A6 216 pmol/mg protein (ratio 0.5)
[23] = N-demethylation of C152, HLM(ODN), added CYP2A6 433 pmol/mg protein (ratio 1)

T3 sequence (P33261 whole entry): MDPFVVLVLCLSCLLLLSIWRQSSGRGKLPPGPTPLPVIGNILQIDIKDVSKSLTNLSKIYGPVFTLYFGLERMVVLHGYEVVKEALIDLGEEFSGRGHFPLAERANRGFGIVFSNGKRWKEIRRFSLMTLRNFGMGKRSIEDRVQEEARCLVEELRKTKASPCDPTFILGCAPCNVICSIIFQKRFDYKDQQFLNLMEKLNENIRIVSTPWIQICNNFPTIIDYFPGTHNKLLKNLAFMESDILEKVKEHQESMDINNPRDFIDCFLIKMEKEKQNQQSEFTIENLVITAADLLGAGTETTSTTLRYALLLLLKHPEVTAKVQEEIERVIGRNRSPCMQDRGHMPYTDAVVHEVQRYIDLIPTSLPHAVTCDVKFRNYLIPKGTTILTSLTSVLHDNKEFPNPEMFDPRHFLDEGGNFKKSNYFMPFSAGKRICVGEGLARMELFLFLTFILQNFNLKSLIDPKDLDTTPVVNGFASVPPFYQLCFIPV
T4 sequence (P20815 whole entry): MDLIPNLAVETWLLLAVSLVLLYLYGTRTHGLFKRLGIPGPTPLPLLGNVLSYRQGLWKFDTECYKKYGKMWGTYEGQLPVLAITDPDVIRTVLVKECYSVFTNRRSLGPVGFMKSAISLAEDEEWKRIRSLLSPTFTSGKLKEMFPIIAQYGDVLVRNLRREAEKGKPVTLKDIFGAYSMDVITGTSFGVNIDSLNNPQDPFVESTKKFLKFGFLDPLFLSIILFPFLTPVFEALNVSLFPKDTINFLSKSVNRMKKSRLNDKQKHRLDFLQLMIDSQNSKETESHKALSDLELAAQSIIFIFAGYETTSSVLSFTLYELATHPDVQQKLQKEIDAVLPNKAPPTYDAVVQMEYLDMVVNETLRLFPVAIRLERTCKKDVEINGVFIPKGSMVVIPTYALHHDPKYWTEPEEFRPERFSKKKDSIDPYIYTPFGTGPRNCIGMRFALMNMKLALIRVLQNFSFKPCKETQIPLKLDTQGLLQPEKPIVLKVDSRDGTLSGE
T2 sequence (P08684 2-503 limits assumed): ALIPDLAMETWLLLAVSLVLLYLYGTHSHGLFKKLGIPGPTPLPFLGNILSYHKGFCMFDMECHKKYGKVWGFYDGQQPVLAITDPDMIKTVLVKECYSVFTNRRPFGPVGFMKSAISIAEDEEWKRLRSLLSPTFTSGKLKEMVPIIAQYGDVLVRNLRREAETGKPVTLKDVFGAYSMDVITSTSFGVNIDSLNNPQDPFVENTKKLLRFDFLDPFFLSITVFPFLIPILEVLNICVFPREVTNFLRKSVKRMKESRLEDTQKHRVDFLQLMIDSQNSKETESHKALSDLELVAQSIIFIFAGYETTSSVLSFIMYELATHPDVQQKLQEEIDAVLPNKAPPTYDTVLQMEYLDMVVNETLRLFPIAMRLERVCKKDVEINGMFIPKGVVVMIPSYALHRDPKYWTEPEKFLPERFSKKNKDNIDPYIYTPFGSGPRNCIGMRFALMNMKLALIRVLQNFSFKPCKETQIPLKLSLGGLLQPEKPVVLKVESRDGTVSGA

`Clc1ccc(Cc2ccncc2)cc1` showed an IC50 [1] of 0.035 ± 0.01 µM, a Maximal inhibition ([1]; SS(2B6), 30 μM C152) of 95 ± 3% and an IC50 [2] of 0.225 ± 0.073 µM. For the same molecule, the Maximal inhibition ([3]; HLM(FVT)+CYP3A5 (12.5% of total P450)) was 89 ± 8%, the Maximal inhibition ([3]; HLM(FVT)) was 79 ± 17% and the Maximal inhibition ([3]; HLM(IHG)) was 90 ± 3%. For the same molecule, the Maximal inhibition ([3]; HLM(LBA)) was 88 ± 12%, the Maximal inhibition ([3]; HLM(LFJ)) was 84 ± 23% and the Maximal inhibition ([3]; HLM(NQO)) was 92 ± 4%. The Maximal inhibition ([3]; HLM(ODN)+CYP3A5 (12.5% of total P450)) was 70 ± 3%, the Maximal inhibition ([3]; HLM(ODN)) was 91 ± 2% and the IC50 [4] was 0.215 ± 0.118 µM.
In the case of `CC[C@@]1(c2ccccc2)NC(=O)N(Cc2ccccc2)C1=O` [(+)-N-3-Benzylnirvanol, (S)-(+)-N-3-benzylnirvanol], the “Maximal inhibition ((+)-N-3-Benzylnirvanol)” value ([1]; SS(2B6), 30 μM C152) is reported as 81 ± 7%, the IC50 ([1]; read-out: IC50 ((+)-N-3-Benzylnirvanol), SS(2B6), 30 μM C152) is reported as 8.5 ± 2.3 µM and the “Maximal inhibition ((+)-N-3-Benzylnirvanol)” value ([2]; SS(3A4), 30 μM C152) is reported as 59 ± 10%. For the same molecule, the IC50 ([2]; read-out: IC50 ((+)-N-3-Benzylnirvanol), SS(3A4), 30 μM C152) was 27 ± 3 µM, the “Maximal inhibition ((+)-N-3-Benzylnirvanol)” value [5] was 78 ± 21% and the IC50 ([5]; read-out: IC50 ((+)-N-3-Benzylnirvanol)) was 6.6 ± 1.5 µM. For the same molecule, the “Maximal inhibition ((+)-N-3-Benzylnirvanol)” value ([3]; HLM(FVT)) was 62 ± 9%, the “Maximal inhibition ((+)-N-3-Benzylnirvanol)” value ([3]; HLM(IHG)) was 47 ± 12% and the “Maximal inhibition ((+)-N-3-Benzylnirvanol)” value ([3]; HLM(LBA)+CYP2E1) was 78 ± 36%. For the same molecule, the “Maximal inhibition ((+)-N-3-Benzylnirvanol)” value ([3]; HLM(LBA)) was 57 ± 10%, the “Maximal inhibition ((+)-N-3-Benzylnirvanol)” value ([3]; HLM(LFJ)+CYP2E1) was 95 ± 6% and the “Maximal inhibition ((+)-N-3-Benzylnirvanol)” value ([3]; HLM(LFJ)) was 79 ± 22%. The “Maximal inhibition ((+)-N-3-Benzylnirvanol)” value ([3]; HLM(NQO)) was 78 ± 43%, the “Maximal inhibition ((+)-N-3-Benzylnirvanol)” value ([3]; HLM(ODN)) was 65 ± 4% and the IC50 ([3]; HLM(FVT)) was 11 ± 4 µM. The IC50 ([3]; HLM(IHG)) was 16 ± 2 µM, the IC50 ([3]; HLM(LBA)+CYP2E1) was 26 ± 10 µM and the IC50 ([3]; HLM(LBA)) was 0.51 ± 0.03 µM. For the same molecule, the IC50 ([3]; HLM(LFJ)+CYP2E1) was 12 ± 2 µM, the IC50 ([3]; HLM(LFJ)) was 0.49 ± 0.12 µM and the IC50 ([3]; HLM(NQO)) was 0.46 ± 0.39 µM. The IC50 ([3]; HLM(ODN)) was 19 ± 15 µM.
In the case of `CN(C)c1ccc2c(C(F)(F)F)cc(=O)oc2c1` [C152, 7-Dimethylamino-4-trifluromethylcoumarin], the S50 [6] is listed as 16.4 ± 4.8 µM, the Vmax [6] is listed as 8.8 ± 1.0 min⁻¹ and the S50 [7] is listed as 12 ± 6 µM. For the same molecule, the turnover [7] was 2.6 ± 0.8 min⁻¹, the S50 [8] was 1.8 ± 0.2 µM and the Vmax [8] was 44.2 ± 14.8 min⁻¹. The “N (the Hill coefficient)” value ([9]; SS(3A4)) was 1.61 ± 0.24, the S50 ([9]; SS(3A4)) was 4.5 ± 1.2 µM and the Vmax ([9]; SS(3A4)) was 23.8 ± 4.2 min⁻¹. The “N (the Hill coefficient)” value ([9]; SS(3A4)+CYP2E1) was 1.28 ± 0.31, the S50 ([9]; SS(3A4)+CYP2E1) was 10.2 ± 2.8 µM and the Vmax ([9]; SS(3A4)+CYP2E1) was 34.0 ± 4.6 min⁻¹. The S50 [10] was 5.7 ± 1.1 µM, the Vmax [10] was 8.3 ± 3.4 min⁻¹ and the “N (the Hill coefficient)” value [11, 17] was 1.41 ± 0.66. For the same molecule, the S50 [11, 17] was 1.73 ± 0.66 µM, the Vmax [11, 17] was 20.9 ± 5.7 min⁻¹ and the “N (the Hill coefficient)” value ([11]; HLM(FVT)+CYP2E1) was 1.28 ± 0.33. For the same molecule, the S50 ([11]; HLM(FVT)+CYP2E1) was 18.9 ± 1.2 µM, the Vmax ([11]; HLM(FVT)+CYP2E1) was 20.6 ± 1.3 min⁻¹ and the “N (the Hill coefficient)” value ([11]; HLM(FVT), intact) was 1.49 ± 0.67. For the same molecule, the S50 ([11]; HLM(FVT), intact) was 14.2 ± 1.0 µM, the Vmax ([11]; HLM(FVT), intact) was 33.6 ± 2.1 min⁻¹ and the “N (the Hill coefficient)” value ([11]; HLM(IHG), intact) was 1.03 ± 0.09. For the same molecule, the S50 ([11]; HLM(IHG), intact) was 4.7 ± 2.7 µM, the Vmax ([11]; HLM(IHG), intact) was 46.3 ± 3.8 min⁻¹ and the “N (the Hill coefficient)” value ([11]; HLM(LBA)+CYP2E1) was 1.14 ± 0.26. The S50 ([11]; HLM(LBA)+CYP2E1) was 8.8 ± 2.1 µM, the Vmax ([11]; HLM(LBA)+CYP2E1) was 62.6 ± 5.6 min⁻¹ and the “N (the Hill coefficient)” value ([11]; HLM(LBA), intact) was 1.76 ± 0.33. The S50 ([11]; HLM(LBA), intact) was 4.4 ± 1.5 µM, the Vmax ([11]; HLM(LBA), intact) was 75.0 ± 10.6 min⁻¹ and the “N (the Hill coefficient)” value ([11]; HLM(LFJ)+CYP2E1) was 1.37 ± 0.44. The S50 ([11]; HLM(LFJ)+CYP2E1) was 11.6 ± 2.8 µM, the Vmax ([11]; HLM(LFJ)+CYP2E1) was 44.7 ± 5.9 min⁻¹ and the “N (the Hill coefficient)” value ([11]; HLM(LFJ), intact) was 1.94 ± 0.51. For the same molecule, the S50 ([11]; HLM(LFJ), intact) was 4.8 ± 1.2 µM, the Vmax ([11]; HLM(LFJ), intact) was 47.8 ± 3.2 min⁻¹ and the “N (the Hill coefficient)” value ([11]; HLM(NQO), intact) was 1.03 ± 0.05. The S50 ([11]; HLM(NQO), intact) was 3.7 ± 1.9 µM, the Vmax ([11]; HLM(NQO), intact) was 29.9 ± 3.6 min⁻¹ and the “N (the Hill coefficient)” value [11, 18] was 1.73 ± 0.69. For the same molecule, the S50 [11, 18] was 1.83 ± 0.96 µM, the Vmax [11, 18] was 22.4 ± 1.3 min⁻¹ and the “N (the Hill coefficient)” value ([11]; HLM(ODN), intact) was 1.40 ± 0.17. The S50 ([11]; HLM(ODN), intact) was 3.3 ± 0.5 µM and 3.29 ± 0.53 µM, the Vmax ([11]; HLM(ODN), intact) was 37.1 ± 10.2 min⁻¹ and the “N (the Hill coefficient)” value ([11]; HLM(S9)+CYP2E1) was 1.16 ± 0.37. For the same molecule, the S50 ([11]; HLM(S9)+CYP2E1) was 3.2 ± 1.5 µM, the Vmax ([11]; HLM(S9)+CYP2E1) was 6.6 ± 0.8 min⁻¹ and the “N (the Hill coefficient)” value ([11]; HLM(S9), intact) was 1.27 ± 0.25. It also gave an S50 ([11]; HLM(S9), intact) of 5.5 ± 2.9 µM, a Vmax ([11]; HLM(S9), intact) of 17.8 ± 4.6 min⁻¹ and a Km [11, 19] of 3.29 ± 0.53 µM. For the same molecule, the N [11, 19] was 1.40 ± 0.17, the Vmax [11, 19] was 37.1 ± 10.2 min⁻¹ and the Km [11, 20] was 11.4 ± 0.2 µM. For the same molecule, the N [11, 20] was 1.30 ± 0.21, the Vmax [11, 20] was 29.1 ± 1.3 min⁻¹ and the Km [11, 21] was 4.15 ± 1.33 µM. For the same molecule, the N [11, 21] was 1.04 ± 0.05, the Vmax [11, 21] was 60.1 ± 10.9 min⁻¹ and the Km [11, 22] was 6.88 ± 2.47 µM. For the same molecule, the N [11, 22] was 1.14 ± 0.23, the Vmax [11, 22] was 56.2 ± 4.9 min⁻¹ and the Km [11, 23] was 4.57 ± 2.57 µM. For the same molecule, the N [11, 23] was 1.38 ± 0.24, the Vmax [11, 23] was 75.3 ± 25.2 min⁻¹ and the “activity of CYP2E1 with C152” value [12] was “do not exhibit any activity”. For the same molecule, the “ability of CYP2A6 to catalyze demethylation of C152” value [13] was “lacks any ability to catalyze the demethylation of C152”.
With `Clc1ccccc1C(c1ccccc1)(c1ccccc1)n1ccnc1` [Clotrimazole] the IC50 [14] was 0.164 ± 0.039 µM, the “IC50 with CYP3A4 lower than the values observed with CYP2B6 and CYP2C19” value [15] was 1–2 orders of magnitude and the IC50 ([4]; read-out: IC50 (Clotrimazole), SS(2C19), 30 μM C152) was 0.202 ± 0.113 µM.
For `O=c1ccc2ccccc2o1` [Coumarin, coumarin], the N [16] was 1.66 ± 0.41 and the Vmax [16] was 5.6 ± 0.5 min⁻¹.
